From US9937151B2, “Carbapenem antibacterials with gram-negative activity” (priority 2010, dated 2018)
Values after ≈ are worked out from the molar mass of the structure shown.

Test system: G(−) bacterial strains
Assay: Dilution antimicrobial susceptibility tests (MIC, NCCLS agar dilution / broth dilution)
Type: cell-based, Gram-negative organisms
Details: unit assumed
Method: The MIC (minimum inhibitory concentration) was determined by the NCCLS (National Committee for Clinical Laboratory Standards) methods 2000. Methods for dilution antimicrobial susceptibility testing for bacteria that growth aerobically (M7-A5, vol. 20, No. 2). The agar dilution method for determining antimicrobial susceptibility was carried out using Mueller-Hinton agar. A final inoculum of 10^4 CFU/spot was applied with an inoculation device. Broth dilution tests were performed with 5×10^5 CFU/well in 96 well plates. The susceptibilities of streptococci were determined by Mueller-Hinton agar supplemented with 5% sheep blood. All assays were run with the indicated control strains, available from the ATCC (American Type Culture Collection, Rockville, Md.).
Abbreviations used in Table 1 are defined as follows: Cf-R: Ceftazidime Resistance, Ci-R: Ciprofloxacin Resistance, Gen-R: Gentamycin Resistance, Imp-R: Imipenem Resistance, Mp-R: Meropenem Resistance, Ofx-R: Ofloxacin Resistance, B+: β-lactamase Production, AmpC: AmpC-lactamase Hyper production, CBPase: Carbapenemase Production.

[1] = strain #1 Acinetobacter calcoaceticus
[2] = strain #2 Acinetobacter baumannii, Cf-R, Ci-R
[3] = strain #3 Acinetobacter baumannii, Cf-R, Ci-R, Mp-I
[4] = strain #4 Acinetobacter baumannii, Cf-R, Imp-I, CBPase
[5] = strain #7 Enterobacter aerogenes
[6] = strain #8 Enterobacter cloacae, Cf-R, B+
[7] = strain #9 Enterobacter cloacae, Cf-R
[8] = strain #10 Escherichia coli, Ci-R
[9] = strain #11 Escherichia coli, Ci-R, AmpC
[10] = strain #15 Klebsiella pneumoniae
[11] = strain #16 Moraxella catarrhalis
[12] = strain #21 Providencia rettgeri
[13] = strain #22 Salmonella typhimurium
[14] = strain #25 Shigella dysenteriae
[15] = strain #28 Stenotrophomonas maltophilia
[16] = strain #29 Pseudomonas aeruginosa
[17] = strain #30 Pseudomonas aeruginosa
[18] = strain #31 Pseudomonas aeruginosa, Ofx-R
[19] = strain #32 Pseudomonas aeruginosa, Cf-R
[20] = strain #33 Pseudomonas aeruginosa, Ci-R
[21] = strain #34 Pseudomonas aeruginosa, Gen-R
[22] = strain #35 Pseudomonas aeruginosa, Ip-R
[23] = strain #36 Pseudomonas aeruginosa, Cf-R, Ci-R, Mp-R

Compound	MIC [1]	MIC [2]	MIC [3]	MIC [4]	MIC (strain #5 Citrobacter diversus)	MIC (strain #6 Citrobacter freundii)	MIC [5]	MIC [6]	MIC [7]	MIC [8]	MIC [9]	MIC (strain #12 Escherichia coli)	MIC (strain #13 Escherichia coli)	MIC (strain #14 Klebsiella oxytoca)	MIC [10]	MIC [11]	MIC (strain #17 Morganella Morganii)	MIC (strain #18 Morganella Morganii)	MIC (strain #19 Proteus vulgaris)	MIC (strain #20 Proteus mirabilis)	other results
C[C@@H](O)C1C(=O)N2C(C(=O)O)=C(CN3CC[C@H](N)C3)[C@H](C)C12 (stereo partly shown) [Compound 27]	0.25 µg/mL (≈ 0.808 µM)	0.5 µg/mL (≈ 1.62 µM)	2 µg/mL (≈ 6.46 µM)	1 µg/mL (≈ 3.23 µM)	0.25 µg/mL (≈ 0.808 µM)	0.25 µg/mL (≈ 0.808 µM)	1 µg/mL (≈ 3.23 µM)	0.25 µg/mL (≈ 0.808 µM)	0.5 µg/mL (≈ 1.62 µM)	0.25 µg/mL (≈ 0.808 µM)	0.25 µg/mL (≈ 0.808 µM)	0.25 µg/mL (≈ 0.808 µM)	0.25 µg/mL (≈ 0.808 µM)	0.5 µg/mL (≈ 1.62 µM)	0.5 µg/mL (≈ 1.62 µM)	≤ 0.008 µg/mL	4 µg/mL (≈ 12.9 µM)	2 µg/mL (≈ 6.46 µM)	1 µg/mL (≈ 3.23 µM)	0.25 µg/mL (≈ 0.808 µM)	MIC [12]: 1 µg/mL (≈ 3.23 µM); MIC [13]: 0.25 µg/mL (≈ 0.808 µM); MIC (strain #23 Serratia marcescens): 0.5 µg/mL (≈ 1.62 µM); MIC (strain #24 Serratia marcescens): 1 µg/mL (≈ 3.23 µM); MIC [14]: 0.5 µg/mL (≈ 1.62 µM); MIC (strain #26 Shigella sonnei): 0.25 µg/mL (≈ 0.808 µM); MIC (strain #27 Shigella flexneri): 0.13 µg/mL (≈ 0.42 µM); MIC [15]: 0.13 µg/mL (≈ 0.42 µM); MIC [16]: 2 µg/mL (≈ 6.46 µM); MIC [17]: 2 µg/mL (≈ 6.46 µM); MIC [18]: 0.5 µg/mL (≈ 1.62 µM); MIC [19]: 2 µg/mL (≈ 6.46 µM); MIC [20]: 2 µg/mL (≈ 6.46 µM); MIC [21]: 2 µg/mL (≈ 6.46 µM); MIC [22]: 4 µg/mL (≈ 12.9 µM); MIC [23]: 8 µg/mL (≈ 25.9 µM)
C[C@@H](O)[C@H]1C(=O)N2C(C(=O)O)=C(CN3CC(O)C(NC(=N)N)C3)[C@H](C)[C@H]12 (mixture of isomers) [Compound 176]	0.13 µg/mL	0.5 µg/mL	1 µg/mL	1 µg/mL	0.063 µg/mL	0.13 µg/mL	0.25 µg/mL	0.063 µg/mL	0.13 µg/mL	0.063 µg/mL	0.063 µg/mL	0.063 µg/mL	0.13 µg/mL	0.13 µg/mL	0.13 µg/mL	≤ 0.008 µg/mL	1 µg/mL	0.5 µg/mL	0.25 µg/mL	0.063 µg/mL	MIC [12]: 0.25 µg/mL; MIC [13]: 0.13 µg/mL; MIC (strain #23 Serratia marcescens): 0.25 µg/mL; MIC (strain #24 Serratia marcescens): 0.25 µg/mL; MIC [14]: 0.13 µg/mL; MIC (strain #26 Shigella sonnei): 0.063 µg/mL; MIC (strain #27 Shigella flexneri): 0.063 µg/mL; MIC [15]: 0.063 µg/mL; MIC [16]: 1 µg/mL; MIC [17]: 1 µg/mL; MIC [18]: 0.5 µg/mL; MIC [19]: 1 µg/mL; MIC [20]: 1 µg/mL; MIC [21]: 1 µg/mL; MIC [22]: 2 µg/mL; MIC [23]: 8 µg/mL
C[C@@H](O)C1C(=O)N2C(C(=O)O)=C(CN3CC[C@H](NC(=N)NS(C)(=O)=O)C3)[C@H](C)C12 (stereo partly shown) [Compound 106]	4 µg/mL (≈ 9.31 µM)	2 µg/mL (≈ 4.66 µM)	8 µg/mL (≈ 18.6 µM)	2 µg/mL (≈ 4.66 µM)	1 µg/mL (≈ 2.33 µM)	1 µg/mL (≈ 2.33 µM)	2 µg/mL (≈ 4.66 µM)	1 µg/mL (≈ 2.33 µM)	2 µg/mL (≈ 4.66 µM)	1 µg/mL (≈ 2.33 µM)	0.5 µg/mL (≈ 1.16 µM)	1 µg/mL (≈ 2.33 µM)	1 µg/mL (≈ 2.33 µM)	2 µg/mL (≈ 4.66 µM)	1 µg/mL (≈ 2.33 µM)	≤ 0.008 µg/mL	4 µg/mL (≈ 9.31 µM)	4 µg/mL (≈ 9.31 µM)	2 µg/mL (≈ 4.66 µM)	1 µg/mL (≈ 2.33 µM)	MIC [12]: 4 µg/mL (≈ 9.31 µM); MIC [13]: 1 µg/mL (≈ 2.33 µM); MIC (strain #23 Serratia marcescens): 2 µg/mL (≈ 4.66 µM); MIC (strain #24 Serratia marcescens): 2 µg/mL (≈ 4.66 µM); MIC [14]: 1 µg/mL (≈ 2.33 µM); MIC (strain #26 Shigella sonnei): 1 µg/mL (≈ 2.33 µM); MIC (strain #27 Shigella flexneri): 0.5 µg/mL (≈ 1.16 µM); MIC [15]: 1 µg/mL (≈ 2.33 µM); MIC [16]: 8 µg/mL (≈ 18.6 µM); MIC [17]: 8 µg/mL (≈ 18.6 µM); MIC [18]: 4 µg/mL (≈ 9.31 µM); MIC [19]: 8 µg/mL (≈ 18.6 µM); MIC [20]: 8 µg/mL (≈ 18.6 µM); MIC [21]: 8 µg/mL (≈ 18.6 µM); MIC [22]: 16 µg/mL (≈ 37.3 µM); MIC [23]: > 32 µg/mL
C[C@@H](O)C1C(=O)N2C(C(=O)O)=C(CN3CC[C@H](N(C)C)C3)[C@H](C)C12 (stereo partly shown) [Compound 46]	1 µg/mL (≈ 2.96 µM)	2 µg/mL (≈ 5.93 µM)	4 µg/mL (≈ 11.9 µM)	4 µg/mL (≈ 11.9 µM)	0.25 µg/mL (≈ 0.741 µM)	0.5 µg/mL (≈ 1.48 µM)	1 µg/mL (≈ 2.96 µM)	0.25 µg/mL (≈ 0.741 µM)	0.5 µg/mL (≈ 1.48 µM)	0.25 µg/mL (≈ 0.741 µM)	0.25 µg/mL (≈ 0.741 µM)	0.25 µg/mL (≈ 0.741 µM)	0.25 µg/mL (≈ 0.741 µM)	0.5 µg/mL (≈ 1.48 µM)	0.5 µg/mL (≈ 1.48 µM)	≤ 0.008 µg/mL	2 µg/mL (≈ 5.93 µM)	2 µg/mL (≈ 5.93 µM)	1 µg/mL (≈ 2.96 µM)	0.25 µg/mL (≈ 0.741 µM)	MIC [12]: 1 µg/mL (≈ 2.96 µM); MIC [13]: 0.25 µg/mL (≈ 0.741 µM); MIC (strain #23 Serratia marcescens): 1 µg/mL (≈ 2.96 µM); MIC (strain #24 Serratia marcescens): 1 µg/mL (≈ 2.96 µM); MIC [14]: 0.5 µg/mL (≈ 1.48 µM); MIC (strain #26 Shigella sonnei): 0.25 µg/mL (≈ 0.741 µM); MIC (strain #27 Shigella flexneri): 0.25 µg/mL (≈ 0.741 µM); MIC [15]: 0.5 µg/mL (≈ 1.48 µM); MIC [16]: 4 µg/mL (≈ 11.9 µM); MIC [17]: 4 µg/mL (≈ 11.9 µM); MIC [18]: 1 µg/mL (≈ 2.96 µM); MIC [19]: 4 µg/mL (≈ 11.9 µM); MIC [20]: 4 µg/mL (≈ 11.9 µM); MIC [21]: 4 µg/mL (≈ 11.9 µM); MIC [22]: 16 µg/mL (≈ 47.4 µM); MIC [23]: 32 µg/mL (≈ 94.8 µM)
C[C@@H](O)C1C(=O)N2C(C(=O)O)=C(CN3CC[C@H](O)C3)[C@H](C)C12 (stereo partly shown) [Compound 146]	1 µg/mL (≈ 3.22 µM)	1 µg/mL (≈ 3.22 µM)	2 µg/mL (≈ 6.44 µM)	4 µg/mL (≈ 12.9 µM)	0.5 µg/mL (≈ 1.61 µM)	0.5 µg/mL (≈ 1.61 µM)	2 µg/mL (≈ 6.44 µM)	0.25 µg/mL (≈ 0.806 µM)	1 µg/mL (≈ 3.22 µM)	0.25 µg/mL (≈ 0.806 µM)	0.25 µg/mL (≈ 0.806 µM)	0.5 µg/mL (≈ 1.61 µM)	0.5 µg/mL (≈ 1.61 µM)	1 µg/mL (≈ 3.22 µM)	1 µg/mL (≈ 3.22 µM)	0.016 µg/mL (≈ 0.0516 µM)	8 µg/mL (≈ 25.8 µM)	8 µg/mL (≈ 25.8 µM)	4 µg/mL (≈ 12.9 µM)	0.5 µg/mL (≈ 1.61 µM)	MIC [12]: 2 µg/mL (≈ 6.44 µM); MIC [13]: 0.5 µg/mL (≈ 1.61 µM); MIC (strain #23 Serratia marcescens): 2 µg/mL (≈ 6.44 µM); MIC (strain #24 Serratia marcescens): 2 µg/mL (≈ 6.44 µM); MIC [14]: 0.5 µg/mL (≈ 1.61 µM); MIC (strain #26 Shigella sonnei): 0.5 µg/mL (≈ 1.61 µM); MIC (strain #27 Shigella flexneri): 0.25 µg/mL (≈ 0.806 µM); MIC [15]: 0.5 µg/mL (≈ 1.61 µM)
C[C@@H](O)C1C(=O)N2C(C(=O)O)=C(CN3CC[C@H](NC(=O)C(F)(F)F)C3)[C@H](C)C12 (stereo partly shown) [Compound 37]	2 µg/mL (≈ 4.93 µM)	4 µg/mL (≈ 9.87 µM)	8 µg/mL (≈ 19.7 µM)	4 µg/mL (≈ 9.87 µM)	0.5 µg/mL (≈ 1.23 µM)	0.5 µg/mL (≈ 1.23 µM)	2 µg/mL (≈ 4.93 µM)	0.5 µg/mL (≈ 1.23 µM)	1 µg/mL (≈ 2.47 µM)	0.5 µg/mL (≈ 1.23 µM)	0.5 µg/mL (≈ 1.23 µM)	0.5 µg/mL (≈ 1.23 µM)	0.5 µg/mL (≈ 1.23 µM)	0.5 µg/mL (≈ 1.23 µM)	1 µg/mL (≈ 2.47 µM)	≤ 0.008 µg/mL	2 µg/mL (≈ 4.93 µM)	2 µg/mL (≈ 4.93 µM)	1 µg/mL (≈ 2.47 µM)	0.5 µg/mL (≈ 1.23 µM)	MIC [12]: 1 µg/mL (≈ 2.47 µM); MIC [13]: 0.5 µg/mL (≈ 1.23 µM); MIC (strain #23 Serratia marcescens): 1 µg/mL (≈ 2.47 µM); MIC (strain #24 Serratia marcescens): 2 µg/mL (≈ 4.93 µM); MIC [14]: 0.5 µg/mL (≈ 1.23 µM); MIC (strain #26 Shigella sonnei): 0.5 µg/mL (≈ 1.23 µM); MIC (strain #27 Shigella flexneri): 0.25 µg/mL (≈ 0.617 µM); MIC [15]: 1 µg/mL (≈ 2.47 µM); MIC [16]: 8 µg/mL (≈ 19.7 µM); MIC [17]: 8 µg/mL (≈ 19.7 µM); MIC [18]: 4 µg/mL (≈ 9.87 µM); MIC [19]: 8 µg/mL (≈ 19.7 µM); MIC [20]: 8 µg/mL (≈ 19.7 µM); MIC [21]: 8 µg/mL (≈ 19.7 µM); MIC [22]: 16 µg/mL (≈ 39.5 µM); MIC [23]: 32 µg/mL (≈ 78.9 µM)
